Measured values taken from patent US20220048876A1, “INSECTICIDAL COMPOUNDS” (SYNGENTA PARTICIPATIONS AG, priority 2018, published 2022).
Read-outs that look alike come from different tables or passages of the source.

Columns and labels:
Type in all cases: in vivo
Diabrotica balteata = Diabrotica balteata (corn root worm), sprayed maize sprouts; settings: 96 h, read-out: effect in at least one of the two categories (mortality or growth inhibition); for percent effect (mortality or growth inhibition) at 200 ppm: application rate 200 ppm, L2 larvae, 4 days after infestation
Experimental: Diabrotica balteata (Corn Root Worm)
Maize sprouts placed onto an agar layer in 24-well microtiter plates were treated with aqueous test solutions prepared from 10′000 ppm DMSO stock solutions by spraying. After drying, the plates were infested with L2 larvae (6 to 10 per well). The samples were assessed for mortality and growth inhibition in comparison to untreated samples 4 days after infestation.

Plutella xylostella = Plutella xylostella (diamond back moth), artificial diet; settings: 120 h, read-out: effect in at least one of the two categories (mortality or growth inhibition); for percent effect (mortality or growth inhibition) at 200 ppm: application rate 200 ppm, L2 larvae, 5 days after infestation
Experimental: Plutella xylostella (Diamond Back Moth)
24-well microtiter plates with artificial diet were treated with aqueous test solutions prepared from 10′000 ppm DMSO stock solutions by pipetting. After drying, the plates were infested with L2 larvae (10 to 15 per well). The samples were assessed for mortality and growth inhibition in comparison to untreated samples 5 days after infestation.

Euschistus heros = Euschistus heros (neotropical brown stink bug), sprayed soybean leaves; settings: 120 h, read-out: effect in at least one of the two categories (mortality or growth inhibition); for percent effect (mortality or growth inhibition) at 200 ppm: application rate 200 ppm, N2 nymphs, 5 days after infestation
Experimental: Euschistus heros(Neotropical Brown Stink Bug)
Soybean leaves on agar in 24-well microtiter plates were sprayed with aqueous test solutions prepared from 10′000 ppm DMSO stock solutions. After drying the leaves were infested with N2 nymphs. The samples were assessed for mortality and growth inhibition in comparison to untreated samples 5 days after infestation.

Thrips tabaci = Thrips tabaci (onion thrips), feeding/contact activity; settings: 144 h
Experimental: Thrips tabaci (Onion Thrips) Feeding/Contact Activity
(§1) Sunflower leaf discs were placed on agar in 24-well microtiter plates and sprayed with aqueous test solutions prepared from 10′000 ppm DMSO stock solutions. After drying the leaf discs were infested with a thrips population of mixed ages. The samples were assessed for mortality 6 days after infestation.

Spodoptera littoralis = Spodoptera littoralis (Egyptian cotton leaf worm), cotton leaf discs; settings: foliar, 72 h, read-out: control (mortality, anti-feedant effect or growth inhibition)
Experimental: Spodoptera littoralis (Egyptian Cotton Leaf Worm)
Cotton leaf discs were placed onto agar in 24-well microtiter plates and sprayed with aqueous test solutions prepared from 10′000 ppm DMSO stock solutions. After drying the leaf discs were infested with five L1 larvae. The samples were assessed for mortality, anti-feeding effect, and growth inhibition in comparison to untreated samples 3 days after infestation. Control of Spodoptera littoralis by a test sample is given when at least one of the categories mortality, anti-feedant effect, and growth inhibition is higher than the untreated sample.

Myzus persicae = Myzus persicae (green peach aphid), intrinsic activity; settings: 120 h
Description: Myzus persicae (Green Peach Aphid). Intrinsic Activity
Test compounds prepared from 10′000 ppm DMSO stock solutions were applied by pipette into 24-well microtiter plates and mixed with sucrose solution. The plates were closed with a stretched Parafilm. A plastic stencil with 24 holes was placed onto the plate and infested pea seedlings were placed directly on the Parafilm. The infested plate was closed with a gel blotting paper and another plastic stencil and then turned upside down. The samples were assessed for mortality 5 days after infestation.

Tetranychus urticae = Tetranychus urticae (two-spotted spider mite), feeding/contact activity; settings: 192 h
Experimental: Tetranychus urticae (Two-Spotted Spider Mite):Feeding/Contact Activity
as §1, with “Bean” for “Sunflower”, “discs” for “discs were placed”, “were” for “and”, “mite” for “thrips”, “on mixed population (mobile stages) 8” for “6”

[1] = application rate 200 ppm, mixed ages, 6 days after infestation, read-out: mortality
[2] = application rate 200 ppm, L1 larvae, 3 days after infestation
[3] = test rate 12 ppm, 5 days after infestation, read-out: mortality
[4] = application rate 200 ppm, mixed population (mobile stages), 8 days after infestation, read-out: mortality

Cc1cc(C2=NS[C@@](c3cc(Cl)cc(Cl)c3)(C(F)(F)F)C2)ccc1C(=O)NCC1(C#N)CC1 [Compound A1, N-[(1-cyanocyclopropyl)methy]-4-[(5S)-5-(3,5-dichlorophenyl)-5-(trifluoromethyl)-4H-isothiazol-3-yl]-2-methyl-benzamide]
≥ 80%: percent effect (mortality or growth inhibition) at 200 ppm (Diabrotica balteata) | percent effect (mortality or growth inhibition) at 200 ppm (Plutella xylostella) | percent effect (mortality or growth inhibition) at 200 ppm (Euschistus heros) | mortality at 200 ppm (Thrips tabaci; [1]) | percent control (mortality, anti-feedant effect or growth inhibition) at 200 ppm (Spodoptera littoralis; [2]) | mortality at 12 ppm (Myzus persicae; [3]) | mortality at 200 ppm (Tetranychus urticae; [4])

Cc1cc(C2=COC(c3cc(Cl)cc(Cl)c3)(C(F)(F)F)C2)ccc1C(=O)NCC1(C#N)CC1 (centres unmarked) [Compound A2, N-[(1-cyanocyclopropyl)methyl]-4-[2-(3,5-dichlorophenyl)-2-(trifluoromethyl)-3H-furan-4-yl]-2-methyl-benzamide]
≥ 80%: percent effect (mortality or growth inhibition) at 200 ppm (Diabrotica balteata) | percent effect (mortality or growth inhibition) at 200 ppm (Plutella xylostella) | percent effect (mortality or growth inhibition) at 200 ppm (Euschistus heros) | mortality at 200 ppm (Thrips tabaci; [1]) | percent control (mortality, anti-feedant effect or growth inhibition) at 200 ppm (Spodoptera littoralis; [2]) | mortality at 12 ppm (Myzus persicae; [3]) | mortality at 200 ppm (Tetranychus urticae; [4])

Cc1cc(C2=NO[C@](c3cc(Cl)cc(Cl)c3)(C(F)(F)F)[C@H]2Cl)ccc1C(=O)NCC1(C#N)CC1 [Compound A3, 4-[(4S,5R)-4-chloro-5-(3,5-dichlorophenyl)-5-(trifluoromethyl)-4H-isoxazol-3-yl]-N-[(1-cyanocyclopropyl)methyl]-2-methyl-benzamide]
≥ 80%: percent control (mortality or growth inhibition) at 200 ppm (Diabrotica balteata) | percent control (mortality or growth inhibition) at 200 ppm (Plutella xylostella) | percent control (mortality or growth inhibition) at 200 ppm (Euschistus heros) | mortality at 200 ppm (Thrips tabaci) | percent control (mortality, anti-feedant effect or growth inhibition) at 200 ppm (Spodoptera littoralis) | mortality at 12 ppm (Myzus persicae) | mortality at 200 ppm (Tetranychus urticae)

Cc1cc(C2=NCC(c3cc(Cl)c(F)c(Cl)c3)(C(F)(F)F)C2)ccc1C(=O)NCC1(C#N)CC1 (centres unmarked) [Compound A4, N-[(1-cyanocyclopropyl)methyl]-4-[3-(3,5-dichloro-4-fluorophenyl)-3-(trifluoromethyl)-2,4-dihydropyrrol-5-yl]-2-methyl-benzamide]
≥ 80%: percent effect (mortality or growth inhibition) at 200 ppm (Diabrotica balteata) | percent effect (mortality or growth inhibition) at 200 ppm (Plutella xylostella) | percent effect (mortality or growth inhibition) at 200 ppm (Euschistus heros) | mortality at 200 ppm (Thrips tabaci; [1]) | percent control (mortality, anti-feedant effect or growth inhibition) at 200 ppm (Spodoptera littoralis; [2]) | mortality at 12 ppm (Myzus persicae; [3]) | mortality at 200 ppm (Tetranychus urticae; [4])

Cc1cc(C2=NCC(c3cc(Cl)c(Cl)c(Cl)c3)(C(F)(F)F)C2)ccc1C(=O)NCC1(C#N)CC1 (centres unmarked) [Compound A5, N-[(1-cyanocyclopropyl)methyl]-2-methyl-4-[3-(3,4,5-trichlorophenyl)-3-(trifluoromethyl)-2,4-dihydropyrrol-5-yl]benzamide]
≥ 80%: percent effect (mortality or growth inhibition) at 200 ppm (Diabrotica balteata) | percent effect (mortality or growth inhibition) at 200 ppm (Plutella xylostella) | percent effect (mortality or growth inhibition) at 200 ppm (Euschistus heros) | mortality at 200 ppm (Thrips tabaci; [1]) | percent control (mortality, anti-feedant effect or growth inhibition) at 200 ppm (Spodoptera littoralis; [2]) | mortality at 12 ppm (Myzus persicae; [3]) | mortality at 200 ppm (Tetranychus urticae; [4])
